Source: ChEMBL document CHEMBL2424648, “Carbonic anhydrase inhibitors: synthesis and inhibition of the human carbonic anhydrase isoforms I, II, VII, IX and XII with benzene sulfonamides incorporating 4,5,6,7-tetrabromophthalimide moiety” (Bioorg Med Chem, 2013)

Assays:
[1] = molecular target: Carbonic anhydrase 9 (Homo sapiens, UniProt Q16790)
[2] = molecular target: Carbonic anhydrase 1 (Homo sapiens, UniProt P00915)
[3] = molecular target: Carbonic anhydrase 12 (Homo sapiens, UniProt O43570)
[4] = molecular target: Carbonic anhydrase 2 (Homo sapiens, UniProt P00918)

Carbonic anhydrase 1, sequence (P00915 whole entry): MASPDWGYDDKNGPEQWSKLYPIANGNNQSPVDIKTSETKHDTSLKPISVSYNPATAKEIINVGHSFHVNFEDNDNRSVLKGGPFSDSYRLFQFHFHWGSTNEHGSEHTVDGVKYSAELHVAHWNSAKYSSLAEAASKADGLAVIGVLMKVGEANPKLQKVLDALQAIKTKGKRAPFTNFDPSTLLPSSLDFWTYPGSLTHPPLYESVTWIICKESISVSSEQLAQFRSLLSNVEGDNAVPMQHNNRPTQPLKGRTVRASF
Carbonic anhydrase 12, sequence (O43570 whole entry): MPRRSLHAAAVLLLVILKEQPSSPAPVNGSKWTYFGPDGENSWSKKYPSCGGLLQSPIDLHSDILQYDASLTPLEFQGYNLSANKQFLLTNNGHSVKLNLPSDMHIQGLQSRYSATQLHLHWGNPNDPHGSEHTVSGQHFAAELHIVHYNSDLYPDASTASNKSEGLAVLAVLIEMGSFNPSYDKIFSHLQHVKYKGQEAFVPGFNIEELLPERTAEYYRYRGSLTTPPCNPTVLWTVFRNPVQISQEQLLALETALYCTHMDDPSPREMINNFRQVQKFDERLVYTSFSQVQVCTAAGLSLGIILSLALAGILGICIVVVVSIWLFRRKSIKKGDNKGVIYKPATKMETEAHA

| SMILES | Ki [1] | Ki [2] | Ki [3] | Ki [4] |
| --- | --- | --- | --- | --- |
| NS(=O)(=O)c1ccc(N2C(=O)c3c(Br)c(Br)c(Br)c(Br)c3C2=O)c(Cl)c1 | 8.5 nM | 208 nM | 5.9 nM | 55 nM |
| NS(=O)(=O)c1ccc(N2C(=O)c3c(Br)c(Br)c(Br)c(Br)c3C2=O)c(Br)c1 | 8.8 nM | 143 nM | 6.5 nM | 47 nM |
| NS(=O)(=O)c1ccccc1N1C(=O)c2c(Br)c(Br)c(Br)c(Br)c2C1=O | 234 nM | > 10000 nM | 197 nM | 190 nM |
| NS(=O)(=O)c1ccc(CCNC(=S)Nc2ccc(-c3c4ccc(=O)cc-4oc4cc(O)ccc34)c(C(=O)O)c2)cc1 |  |  | 5 nM |  |

More lines, now with the values ahead:

| Ki [1] | Ki [2] | Ki [3] | Ki [4] | SMILES |
| --- | --- | --- | --- | --- |
| 12.3 nM | 251 nM | 12.3 nM |  | NS(=O)(=O)c1ccc(CN2C(=O)c3c(Br)c(Br)c(Br)c(Br)c3C2=O)cc1 |
| 9.4 nM | 770 nM | 7.5 nM | 96 nM | NS(=O)(=O)c1ccc(N2C(=O)c3c(Br)c(Br)c(Br)c(Br)c3C2=O)c(F)c1 |
| 9.1 nM | 432 nM | 6.1 nM | 68 nM | NS(=O)(=O)c1ccc(N2C(=O)c3c(Br)c(Br)c(Br)c(Br)c3C2=O)cc1 |
|  | 340 nM | 19 nM |  | NS(=O)(=O)c1cccc(N2C(=O)c3c(Br)c(Br)c(Br)c(Br)c3C2=O)c1 |
| 15.9 nM |  | 10.2 nM |  | NS(=O)(=O)c1ccc(CCN2C(=O)c3c(Br)c(Br)c(Br)c(Br)c3C2=O)cc1 |
